In PubChem BioAssay (NCI):
Where “and” joins values, the source holds several entries; their conditions need not be identical. Equal entries are not always repeated.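 Growth conditions: 96-well plates. Treatment: test compound, 48 hours, 5 concentrations. Analysis: linear interpolation between bracketing concentrations; unreached endpoints set to highest concentration. Abbreviation: GI50, concentration required for 50% inhibition of growth. At the TGI there is no net growth.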

Experiments:
Assay in all cases: NCI-60 cell line screen, 48 h
[1] = test system: T-47D breast
[2] = test system: NCI-H522 lung
[3] = test system: UACC-62 melanoma
[4] = test system: SNB-19 CNS
[5] = test system: HCC-2998 colon
[6] = test system: HOP-92 NSCLC
[7] = test system: SK-MEL-2 melanoma
[8] = test system: UO-31 renal
[9] = test system: NCI-H460 lung
[10] = test system: SF-268 CNS
[11] = test system: SK-MEL-28 melanoma
[12] = test system: HL-60(TB) leukemia
[13] = test system: RXF 393 renal
[14] = test system: MOLT-4 leukemia
[15] = test system: SF-539 CNS
[16] = test system: BT-549 breast
[17] = test system: OVCAR-4 ovarian

SMILES	TGI [1] [µM]	TGI [2] [µM]	TGI [3] [µM]	TGI [4] [µM]	TGI [5] [µM]	TGI [6] [µM]	TGI [7] [µM]	TGI [8] [µM]	TGI [9] [µM]	TGI [10] [µM]	TGI [11] [µM]	TGI [12] [µM]	TGI [13] [µM]	TGI [14] [µM]	TGI [15] [µM]	TGI [16] [µM]	TGI [17] [µM]	GI50 [6]
Cc1cccc(/C=N\NC(=S)N2CCCCC2)n1	> 100	> 100	3.81	> 100	> 100	> 100	> 100	26.2	0.788	> 100	> 100	0.265	0.593					
CCOC(=O)[C@@H]1ON2O[C@H](OC3CCCCC3c3ccccc3)C[C@H]3OC(=O)[C@@H]1C32 (some centres not stated)	> 100	> 100	> 100		> 100	> 100		> 100	> 100	> 100			> 100	> 100	> 100			
NC(=O)C(=CNC(=S)Nc1ccc(S(=O)(=O)Nc2ccccn2)cc1)C(N)=O	> 100	> 100	> 100	> 100		> 100	> 100	> 100	> 100	> 100	> 100		> 100	5.76	> 100	> 100	> 100	
C[C@@H]1O[C@]2(O)[C@@H]3CCCN3S(=O)(=O)CCN2C1=O		> 100	> 100	> 100	> 100	> 100		> 100	> 100	> 100	> 100	> 100	> 100	> 100	> 100		> 100	
CCc1[nH]c(=O)c2oc3cc4ccccc4cc3c2c1C(=O)O		> 10		> 10	> 10	> 10	> 10	> 10	> 10	> 10		> 10	> 10		> 10	> 10	> 10	
CC(=O)OCC1OC(n2c(N)c(C#N)c(C)c(C#N)c2=S)C(OC(C)=O)C(OC(C)=O)C1OC(C)=O (configuration not stated)	> 100	> 100	> 100	> 100	> 100	> 100	> 100	> 100	> 100	> 100	> 100		> 100	> 100	> 100	> 100	> 100	43.8 µM and > 100 µM
COc1cc(C2C(C(=O)Nc3ccc([N+](=O)[O-])cc3)=C(C)NC(C)=C2C(=O)Nc2ccc([N+](=O)[O-])cc2)ccc1O		39.7	42	> 73.9	40.3	57	34.7	46.3	> 62.1	> 72.6	31.3	> 100	39	75.4	41.1		> 70.8	
Oc1cnc2c(O)cccc2c1	91.6	> 100	62.3	> 100	> 100	> 100	> 100	> 100	> 100	> 100	> 100	> 100		> 100	96.6			
